{"source": "paper PMC4599313", "about": "(Journal of the American Chemical Society, 2015)", "type_in_all_cases": "biochemical", "key": {"PglH": {"molecular_target": "T1, PglH (Campylobacter jejuni, UniProt Q0P9C5)", "T1 sequence (Q0P9C5 1-359)": "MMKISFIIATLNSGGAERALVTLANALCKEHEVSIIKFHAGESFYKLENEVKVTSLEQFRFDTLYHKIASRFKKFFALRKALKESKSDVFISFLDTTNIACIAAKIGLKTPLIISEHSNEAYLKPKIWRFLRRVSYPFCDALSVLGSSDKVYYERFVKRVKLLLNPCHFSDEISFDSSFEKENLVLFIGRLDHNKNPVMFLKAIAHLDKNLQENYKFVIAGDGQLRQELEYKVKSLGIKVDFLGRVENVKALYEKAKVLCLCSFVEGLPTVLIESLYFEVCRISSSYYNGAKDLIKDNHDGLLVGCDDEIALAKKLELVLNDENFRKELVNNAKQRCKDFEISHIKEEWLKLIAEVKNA", "assay": "normal-phase HPLC of [3H]-labelled glycan", "details": "[3H]-labelled Und-PP-diNAcBac-GalNAc-GalNAz acceptor"}, "PglJ": {"molecular_target": "T2, PglJ (Campylobacter jejuni, UniProt Q0P9C7)", "T2 sequence (Q0P9C7 1-365)": "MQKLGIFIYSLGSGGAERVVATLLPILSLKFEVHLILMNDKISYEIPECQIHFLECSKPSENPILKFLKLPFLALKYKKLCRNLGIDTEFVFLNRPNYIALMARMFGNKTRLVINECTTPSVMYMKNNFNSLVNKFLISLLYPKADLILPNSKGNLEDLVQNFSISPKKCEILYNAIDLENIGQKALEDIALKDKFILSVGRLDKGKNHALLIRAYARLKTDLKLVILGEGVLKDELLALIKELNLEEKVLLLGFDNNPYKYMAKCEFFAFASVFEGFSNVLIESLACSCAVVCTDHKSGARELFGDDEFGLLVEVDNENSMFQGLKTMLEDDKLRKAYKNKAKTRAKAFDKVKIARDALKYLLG", "assay": "HPLC and scintillation counting of [3H]-labelled product", "details": "Und-PP-diNAcBac-[3H]-GalNAc acceptor; 100 uM UDP-sugar; PglJ 90 nM"}, "PglC": {"molecular_target": "T3, PglC (Campylobacter jejuni, UniProt Q0P9D0)", "T3 sequence (Q0P9D0 1-200)": "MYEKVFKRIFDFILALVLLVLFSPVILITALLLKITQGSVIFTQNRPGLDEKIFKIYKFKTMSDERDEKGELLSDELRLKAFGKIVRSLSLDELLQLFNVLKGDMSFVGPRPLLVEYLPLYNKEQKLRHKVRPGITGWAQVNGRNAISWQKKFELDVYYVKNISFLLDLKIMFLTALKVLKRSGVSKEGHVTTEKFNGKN", "assay": "capillary electrophoresis of APTS-labelled monosaccharide", "details": "Und-P acceptor; 60 min; PglC 10 nM"}}}
{"smiles": "CC(=O)N[C@H]1[C@@H](OP(=O)(O)OP(=O)(O)OC[C@H]2O[C@@H](n3ccc(=O)[nH]c3=O)[C@H](O)[C@@H]2O)O[C@H](CO)[C@H](O)[C@@H]1O", "note": "[UDP-GalNAc]", "values": [{"measurement": "normal-phase HPLC of [3H]-labelled glycan", "setting": "PglH", "value": "the tolerance of PglH was tested by incubating enzyme with UDP-GalNAc and UDP-GalNAz"}]}
{"smiles": "[N-]=[N+]=NCC(=O)N[C@H]1[C@@H](OP(=O)(O)OP(=O)(O)OC[C@H]2O[C@@H](n3ccc(=O)[nH]c3=O)[C@H](O)[C@@H]2O)O[C@H](CO)[C@H](O)[C@@H]1O", "note": "[UDP-GalNAz]", "values": [{"measurement": "HPLC and scintillation counting of [3H]-labelled product", "setting": "PglJ", "value": "PglJ efficiently incorporates an azido sugar into the Und-PP-trisaccharide"}]}
{"smiles": "CC(=O)N[C@H]1[C@@H](OP(=O)(O)OP(=O)(O)OC[C@H]2O[C@@H](n3ccc(=O)[nH]c3=O)[C@H](O)[C@@H]2O)O[C@H](C)[C@@H](NC(C)=O)[C@@H]1O", "note": "[UDP-diNAcBac]", "values": [{"measurement": "capillary electrophoresis of APTS-labelled monosaccharide", "setting": "PglC", "value": "the conversion was low for both, UDP-diNAcBac and UDP-2-NAc-4-NAzBac"}]}
